9 molecules from ChEMBL document CHEMBL3804756 (J Med Chem, 2016) can be followed below.

Structures are written as SMILES.

The target of experiment [1] is T1, Histamine H1 receptor (Homo sapiens, UniProt P35367). Briefly: Displacement of [3H]mepyramine from human histamine H1 receptor expressed in sf9 cell membrane co-expressing RGS4 incubated for 60 mins by liquid scintillation counting method. In general terms: In a radioligand displacement assay an active substance lowers the binding of a labelled ligand.
Experiment [2] concerns the target T2, Histamine H2 receptor (Homo sapiens, UniProt P25021). The experiment is described as follows: Displacement of [3H]tiotidine from human histamine H2 receptor expressed in sf9 cell membrane co-expressing Gsalphas incubated for 60 mins by liquid scintillation counting method.
Experiment [3] has as its target T3, Histamine H4 receptor (Homo sapiens, UniProt Q9H3N8). Briefly: Displacement of [3H]UR-PI294 from human histamine H4 receptor expressed in sf9 cell membrane co-expressing mammalian Galphai2 and Gbeta1gamma2 incubated for 60 mins by liquid scintillation counting method.
The target of experiment [4] is T4, Histamine H3 receptor (Homo sapiens, UniProt Q9Y5N1). The experiment is described as follows: Displacement of [3H]N-alpha-methylhistamine from human histamine H3 receptor expressed in sf9 cell membrane co-expressing mammalian Galphai2 and Gbeta1gamma2 incubated for 60 mins by liquid scintillation counting method.
For experiment [5], the target named is T5, Histamine H4 receptor (Mus musculus, UniProt Q91ZY2).
T5 sequence (Q91ZY2 whole entry): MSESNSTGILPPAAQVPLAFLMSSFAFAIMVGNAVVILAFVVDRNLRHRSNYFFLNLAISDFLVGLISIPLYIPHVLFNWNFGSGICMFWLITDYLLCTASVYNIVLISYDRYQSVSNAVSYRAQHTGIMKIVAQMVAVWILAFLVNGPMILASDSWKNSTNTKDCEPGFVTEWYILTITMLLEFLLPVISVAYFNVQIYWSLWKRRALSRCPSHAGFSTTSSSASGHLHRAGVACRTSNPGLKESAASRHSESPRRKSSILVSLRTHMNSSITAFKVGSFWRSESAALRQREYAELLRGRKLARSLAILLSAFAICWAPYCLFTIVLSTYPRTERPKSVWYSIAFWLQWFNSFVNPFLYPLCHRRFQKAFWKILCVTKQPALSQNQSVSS
The experiment is described as follows: Agonist activity at mouse SF-His6-tagged histamine H4 receptor expressed in HEK293 cells assessed as inhibition of forskolin-stimulated response incubated for 5 hrs by luciferase reporter gene assay. Format: cell-based. On the technique in general: In a reporter assay the amount or activity of a reporter protein is the signal.

Experiment [6] concerns the target T3, Histamine H4 receptor. Briefly: Agonist activity at human histamine H4 receptor expressed in sf9 cell membrane co-expressing mammalian Galphai2 and Gbeta1gamma2 incubated for 90 mins by [35S]GTPgammaS binding assay. Format: functional.
Experiment [7] addresses T3, Histamine H4 receptor. Briefly: Agonist activity at human SF-His6-tagged histamine H4 receptor expressed in HEK293 cells assessed as inhibition of forskolin-stimulated response incubated for 5 hrs by luciferase reporter gene assay. Format: cell-based.
Experiment [8] has as its target T1, Histamine H1 receptor. Briefly: Antagonist activity at human histamine H1 receptor expressed in sf9 cell membrane co-expressing RGS4 assessed as inhibition of histamine-induced increase in 32Pi level preincubated for 2 mins followed by [gamma-32P]GTP addition measured after 20 mins by liquid scintillation counting method.
In experiment [9] the target is T2, Histamine H2 receptor. The experiment is described as follows: Antagonist activity at human histamine H2 receptor expressed in sf9 cell membrane co-expressing Gsalphas assessed as inhibition of histamine-induced [35S]GTPgammaS binding incubated for 90 mins. Format: functional. (GTPγS resists hydrolysis and so accumulates on activated G proteins.)
The target of experiment [10] is T4, Histamine H3 receptor. Briefly: Intrinsic activity at human histamine H3 receptor expressed in sf9 cell membrane co-expressing mammalian Galphai2 and Gbeta1gamma2 at 10 uM incubated for 90 mins by [35S]GTPgammaS binding assay relative to histamine. Format: functional.
The target in experiment [11] is T2, Histamine H2 receptor. Briefly: Intrinsic activity at human histamine H2 receptor expressed in sf9 cell membrane co-expressing Gsalphas at 10 uM incubated for 90 mins by [35S]GTPgammaS binding assay relative to histamine. Format: functional.
Experiment [12] has as its target T4, Histamine H3 receptor. Briefly: Antagonist activity at human histamine H3 receptor expressed in sf9 cell membrane co-expressing mammalian Galphai2 and Gbeta1gamma2 assessed as inhibition of histamine-induced [35S]GTPgammaS binding incubated for 90 mins. Format: functional.
Experiment [13] addresses T2, Histamine H2 receptor. Briefly: Agonist activity at human histamine H2 receptor expressed in sf9 cell membrane co-expressing Gsalphas incubated for 90 mins by [35S]GTPgammaS binding assay. Format: functional.
For experiment [14], the target named is T6, Histamine H4 receptor (Mus musculus) (UniProt Q91ZY2).
T6 sequence (whole entry): T5 sequence (Q91ZY2 whole entry)
Briefly: Intrinsic activity at mouse SF-His6-tagged histamine H4 receptor expressed in HEK293 cells assessed as inhibition of forskolin-stimulated response incubated for 5 hrs by luciferase reporter gene assay relative to histamine. Format: cell-based.

Experiment [15] has as its target T4, Histamine H3 receptor. The experiment is described as follows: Agonist activity at human histamine H3 receptor expressed in sf9 cell membrane co-expressing mammalian Galphai2 and Gbeta1gamma2 incubated for 90 mins by [35S]GTPgammaS binding assay. Format: functional.
For experiment [16], the target named is T3, Histamine H4 receptor. Briefly: biochemical. Format: cell-based, SK-N-MC.
The target in experiment [17] is T4, Histamine H3 receptor. The experiment is described as follows: Displacement of [3H]N-alpha-methylhistamine from human histamine H3 receptor expressed in human SK-N-MC cells incubated for 40 mins. Format: cell-based.

T1 sequence (P35367 whole entry): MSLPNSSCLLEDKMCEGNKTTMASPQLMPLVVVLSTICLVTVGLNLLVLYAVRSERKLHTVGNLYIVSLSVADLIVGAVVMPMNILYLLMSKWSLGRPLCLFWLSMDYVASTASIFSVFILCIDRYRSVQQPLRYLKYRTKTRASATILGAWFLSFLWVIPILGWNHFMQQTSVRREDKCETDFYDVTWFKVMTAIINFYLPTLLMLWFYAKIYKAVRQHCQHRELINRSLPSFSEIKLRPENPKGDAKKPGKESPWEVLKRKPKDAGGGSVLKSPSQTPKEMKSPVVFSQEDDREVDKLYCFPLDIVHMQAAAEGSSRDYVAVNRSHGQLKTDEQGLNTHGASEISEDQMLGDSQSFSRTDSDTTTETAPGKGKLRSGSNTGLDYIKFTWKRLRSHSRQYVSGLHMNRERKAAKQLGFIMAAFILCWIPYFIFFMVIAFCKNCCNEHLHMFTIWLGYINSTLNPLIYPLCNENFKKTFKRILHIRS
T2 sequence (P25021 whole entry): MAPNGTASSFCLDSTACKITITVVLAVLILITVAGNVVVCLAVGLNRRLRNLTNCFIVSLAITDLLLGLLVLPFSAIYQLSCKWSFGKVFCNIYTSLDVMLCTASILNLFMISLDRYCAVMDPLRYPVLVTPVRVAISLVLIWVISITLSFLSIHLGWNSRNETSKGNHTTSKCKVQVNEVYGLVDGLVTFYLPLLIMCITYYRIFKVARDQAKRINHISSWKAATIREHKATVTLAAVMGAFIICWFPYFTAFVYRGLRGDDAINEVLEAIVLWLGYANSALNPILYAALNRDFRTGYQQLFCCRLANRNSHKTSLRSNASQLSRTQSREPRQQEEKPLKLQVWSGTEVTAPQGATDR
T4 sequence (Q9Y5N1 whole entry): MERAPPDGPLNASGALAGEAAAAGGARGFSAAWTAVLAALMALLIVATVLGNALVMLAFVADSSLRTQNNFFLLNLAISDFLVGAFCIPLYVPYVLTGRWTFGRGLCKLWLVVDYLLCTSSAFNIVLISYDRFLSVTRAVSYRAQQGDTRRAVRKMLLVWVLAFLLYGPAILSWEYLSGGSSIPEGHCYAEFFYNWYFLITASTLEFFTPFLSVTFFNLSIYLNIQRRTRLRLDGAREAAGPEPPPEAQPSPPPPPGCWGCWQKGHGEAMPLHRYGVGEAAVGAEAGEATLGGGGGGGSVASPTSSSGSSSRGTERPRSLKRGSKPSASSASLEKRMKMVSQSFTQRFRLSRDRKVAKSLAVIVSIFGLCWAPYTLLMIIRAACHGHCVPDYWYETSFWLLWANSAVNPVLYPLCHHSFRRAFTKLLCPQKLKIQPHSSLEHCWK
T3 sequence (Q9H3N8 whole entry): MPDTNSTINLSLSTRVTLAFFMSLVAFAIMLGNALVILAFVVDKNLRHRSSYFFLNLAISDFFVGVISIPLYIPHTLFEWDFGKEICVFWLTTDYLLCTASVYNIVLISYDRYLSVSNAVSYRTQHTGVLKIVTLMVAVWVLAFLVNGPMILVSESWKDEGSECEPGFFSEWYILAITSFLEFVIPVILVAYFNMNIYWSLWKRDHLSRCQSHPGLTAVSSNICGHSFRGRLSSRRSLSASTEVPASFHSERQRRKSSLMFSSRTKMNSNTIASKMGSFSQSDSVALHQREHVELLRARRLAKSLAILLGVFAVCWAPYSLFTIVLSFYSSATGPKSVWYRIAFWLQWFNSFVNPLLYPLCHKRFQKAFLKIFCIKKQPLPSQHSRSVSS

Take `N#C/N=C(/NCCSc1ccccc1)NC[C@H]1CC[C@H](c2c[nH]cn2)C1`: the Ki (in general, a dissociation constant, usually derived from enzyme kinetics or from competition with a known ligand) amounted to 6520 nM in experiment [1], 10300 nM in experiment [2], 22 nM in experiment [3] and 2130 nM in experiment [4]. For the same molecule, the EC50 – broadly, the concentration giving half of the maximal effect – in experiment [5] is 166 nM; in [6], 11 nM; in [7] it was 25 nM.

For the molecule `N#C/N=C(/NCCSc1ccccc1)NC[C@H]1CC[C@H](c2c[nH]cn2)C1` (racemic), the Kb – broadly, the affinity of an antagonist, worked out from how it opposes an agonist – was 6000 nM in experiment [8], above 10000 nM in experiment [9] and 246 nM in [12]. In addition, the Intrinsic activity is -0.4 in experiment [10] and 0 in [11].

In turn, `NC[C@H]1CC[C@H](c2c[nH]cn2)C1` (racemic) showed a Ki in experiment [1] above 10000 nM. Besides, the EC50 in [6] is 1710 nM; in experiment [13], above 10000 nM. The Intrinsic activity in experiment [10] and in experiment [11] was 0 each time. The Kb in experiment [12] amounted to 103 nM.

In the case of `N#C/N=C(/NCCSc1ccccc1)NC[C@@H]1CC[C@H](c2c[nH]cn2)C1` (racemic), the antagonist dissociation constant (Kb) was 3800 nM in experiment [8], above 10000 nM in [9] and 162 nM in experiment [12]. The Intrinsic activity in experiment [10] is -0.34; in [11], 0.

On to `NC[C@@H]1CC[C@H](c2c[nH]cn2)C1` (racemic), for which the Ki in experiment [1] is above 10000 nM. For the same molecule, the half-maximal effective concentration (EC50) was 150 nM in experiment [6] and above 10000 nM in [13]. The Intrinsic activity in experiment [10] worked out at 0; in experiment [11], 0.19. Further, the Kb in [12] came to 62 nM.

Consider `N#C/N=C(/NCCSc1ccccc1)NC[C@@H]1CC[C@@H](c2c[nH]cn2)C1`, for which the Ki in [1] came to 7910 nM; in experiment [2], 9820 nM; in [3] it was 1050 nM; in experiment [4], 590 nM. Besides, the Kb in [9] is above 10000 nM; in experiment [12], 143 nM. The figures for the half-maximal effective concentration (EC50) in experiment [5] and in experiment [7] were 589 nM and 500 nM, respectively. The Intrinsic activity in experiment [10] was -0.21; in experiment [11], 0; in experiment [14] it was 0.29.

For `CN/C(=N\C#N)NC[C@@H]1CC[C@@H](c2c[nH]cn2)C1`, the Ki in experiment [1] was above 10000 nM; in experiment [2], above 10000 nM; in experiment [3], 870 nM; in experiment [4], 5680 nM. Moreover, the Kb in experiment [9] is above 10000 nM. Besides, the EC50 came to 3630 nM in [5], 1100 nM in [6] and 9200 nM in experiment [15]. The results for the Intrinsic activity in experiment [10], in experiment [11] and in experiment [14] were 0.29, 0 and 0.96, respectively.

Take `NCCCCc1c[nH]cn1` [IMBUTAMINE]: the Ki in experiment [16] came out at 12.7 nM; in experiment [17], 4.3 nM.

For `CN/C(=N\C#N)NC[C@H]1CC[C@H](c2c[nH]cn2)C1`, the Ki was above 10000 nM in experiment [1] (sf9), above 10000 nM in [2], 98 nM in [3] and 958 nM in experiment [4]. In addition, the EC50 in experiment [5] is 538 nM; in experiment [6], 100 nM; in experiment [7], 63 nM; in [15] it was 994 nM.
